One experiment addresses T1, PDFRB (Homo sapiens, UniProt P09619).
T1 construct: gene PDGFRB
The experiment is described as follows: KINOMEscan at […], single concentration. The format is binding.

In a further experiment the target is T2, ZAK (Homo sapiens, UniProt Q9NYL2).
T2 construct: gene MAP3K20
The experiment is described as follows: KINOMEscan at […], single concentration. The format is binding.

The next experiment concerns the target GAK (Homo sapiens, UniProt O14976). In words: KINOMEscan at […], single concentration. The experiment is classed as binding.
In a further experiment the target is MARK1 (Homo sapiens, UniProt Q9P0L2). In words: biochemical. Particulars: read-out: 7 at 1 µM % inhibition. On the set-up: KINOMEscan competition binding panel (Eurofins DiscoverX), single concentration, % inhibition. The procedure, abridged: (§1)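 Selectivity profile from a KINOMEscan run against >400 human kinases; test concentration 1 µM.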
A further experiment concerns the target LYN (Homo sapiens, UniProt P07948). In words: biochemical. On the set-up: KINOMEscan competition binding panel (Eurofins DiscoverX), single concentration, % inhibition. The conditions noted are these: read-out: 7 at 1 µM % inhibition. In outline: as §1
The target in the next experiment is CSNK1A1 (Homo sapiens, UniProt P48729). In words: biochemical. On the set-up: KINOMEscan competition binding panel (Eurofins DiscoverX), single concentration, % inhibition. Particulars: read-out: 7 at 1 µM % inhibition. The procedure, abridged: as §1
The target of the next experiment is RIPK4 (Homo sapiens, UniProt P57078). In words: biochemical. Further details: KINOMEscan competition binding panel (Eurofins DiscoverX), single concentration, % inhibition. Particulars: read-out: 7 at 1 µM % inhibition. The procedure, abridged: as §1
The next experiment addresses PRKCD (Homo sapiens, UniProt Q05655). In words: biochemical. Particulars: read-out: 7 at 1 µM % inhibition. On the set-up: KINOMEscan competition binding panel (Eurofins DiscoverX), single concentration, % inhibition. The procedure, abridged: as §1
Another experiment deals with PRKCI (Homo sapiens, UniProt P41743). In words: biochemical. On the set-up: KINOMEscan competition binding panel (Eurofins DiscoverX), single concentration, % inhibition. The conditions noted are these: read-out: 7 at 1 µM % inhibition. In outline:
as §1

Another experiment deals with CDK2 (Homo sapiens, UniProt P24941). In words: biochemical. On the set-up: KINOMEscan competition binding panel (Eurofins DiscoverX), single concentration, % inhibition. The conditions noted are these: read-out: 7 at 1 µM % inhibition. In outline: as §1
Another experiment has as its target HIPK1 (Homo sapiens, UniProt Q86Z02). In words: biochemical. On the set-up: KINOMEscan competition binding panel (Eurofins DiscoverX), single concentration, % inhibition. Particulars: read-out: 7 at 1 µM % inhibition. In outline:
as §1

Another experiment has as its target T3, PFCDPK1(P.falciparum) (Plasmodium falciparum, UniProt P62344).
T3 construct: gene CDPK1
The experiment is described as follows: biochemical. Further details: KINOMEscan competition binding panel (Eurofins DiscoverX), single concentration, % inhibition. Particulars: read-out: 7 at 1 µM % inhibition (pathogen kinases). The procedure, abridged:
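Values come from single-concentration (1 µM) profiling in the Eurofins DiscoverX KINOMEscan competition-binding platform, which covers over 400 kinases.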

The next experiment concerns the target T4, JNK3 (Homo sapiens, UniProt P53779).
T4 construct: gene MAPK10
In words: biochemical. Further details: KINOMEscan competition binding panel (Eurofins DiscoverX), single concentration, % inhibition. The conditions noted are these: read-out: 7 at 1 µM % inhibition. The procedure, abridged: as §1

The target in a further experiment is EPHA3 (Homo sapiens, UniProt P29320). The experiment is described as follows: biochemical. On the set-up: KINOMEscan competition binding panel (Eurofins DiscoverX), single concentration, % inhibition. The conditions noted are these: read-out: 7 at 1 µM % inhibition. In outline:
as §1

Another experiment deals with T5, MST4 (Homo sapiens, UniProt Q9P289).
T5 construct: gene STK26
The experiment is described as follows: biochemical. On the set-up: KINOMEscan competition binding panel (Eurofins DiscoverX), single concentration, % inhibition. Particulars: read-out: 7 at 1 µM % inhibition. The procedure, abridged:
as §1

A further experiment has as its target T6, DCAMKL3 (Homo sapiens, UniProt Q9C098).
T6 construct: gene DCLK3
The experiment is described as follows: biochemical. On the set-up: KINOMEscan competition binding panel (Eurofins DiscoverX), single concentration, % inhibition. The conditions noted are these: read-out: 7 at 1 µM % inhibition. In outline: as §1

In another experiment the target is PDGFRA (Homo sapiens, UniProt P16234). The experiment is described as follows: biochemical. On the set-up: KINOMEscan competition binding panel (Eurofins DiscoverX), single concentration, % inhibition. Particulars: read-out: 7 at 1 µM % inhibition. In outline: as §1
The target in the next experiment is T7, YANK1 (Homo sapiens, UniProt Q8WU08).
T7 construct: gene STK32A
In words: biochemical. Further details: KINOMEscan competition binding panel (Eurofins DiscoverX), single concentration, % inhibition. Particulars: read-out: 7 at 1 µM % inhibition. The procedure, abridged: as §1

In a further experiment the target is T8, AMPK-alpha2 (Homo sapiens, UniProt P54646).
T8 construct: gene PRKAA2
The experiment is described as follows: biochemical. On the set-up: KINOMEscan competition binding panel (Eurofins DiscoverX), single concentration, % inhibition. The conditions noted are these: read-out: 7 at 1 µM % inhibition. In outline: as §1

The values below come from PMC7180948, “New Insights into 4-Anilinoquinazolines as Inhibitors of Cardiac Troponin I–Interacting Kinase (TNNi3K)” (Molecules, 2020).

GAK, sequence (O14976 2-1311): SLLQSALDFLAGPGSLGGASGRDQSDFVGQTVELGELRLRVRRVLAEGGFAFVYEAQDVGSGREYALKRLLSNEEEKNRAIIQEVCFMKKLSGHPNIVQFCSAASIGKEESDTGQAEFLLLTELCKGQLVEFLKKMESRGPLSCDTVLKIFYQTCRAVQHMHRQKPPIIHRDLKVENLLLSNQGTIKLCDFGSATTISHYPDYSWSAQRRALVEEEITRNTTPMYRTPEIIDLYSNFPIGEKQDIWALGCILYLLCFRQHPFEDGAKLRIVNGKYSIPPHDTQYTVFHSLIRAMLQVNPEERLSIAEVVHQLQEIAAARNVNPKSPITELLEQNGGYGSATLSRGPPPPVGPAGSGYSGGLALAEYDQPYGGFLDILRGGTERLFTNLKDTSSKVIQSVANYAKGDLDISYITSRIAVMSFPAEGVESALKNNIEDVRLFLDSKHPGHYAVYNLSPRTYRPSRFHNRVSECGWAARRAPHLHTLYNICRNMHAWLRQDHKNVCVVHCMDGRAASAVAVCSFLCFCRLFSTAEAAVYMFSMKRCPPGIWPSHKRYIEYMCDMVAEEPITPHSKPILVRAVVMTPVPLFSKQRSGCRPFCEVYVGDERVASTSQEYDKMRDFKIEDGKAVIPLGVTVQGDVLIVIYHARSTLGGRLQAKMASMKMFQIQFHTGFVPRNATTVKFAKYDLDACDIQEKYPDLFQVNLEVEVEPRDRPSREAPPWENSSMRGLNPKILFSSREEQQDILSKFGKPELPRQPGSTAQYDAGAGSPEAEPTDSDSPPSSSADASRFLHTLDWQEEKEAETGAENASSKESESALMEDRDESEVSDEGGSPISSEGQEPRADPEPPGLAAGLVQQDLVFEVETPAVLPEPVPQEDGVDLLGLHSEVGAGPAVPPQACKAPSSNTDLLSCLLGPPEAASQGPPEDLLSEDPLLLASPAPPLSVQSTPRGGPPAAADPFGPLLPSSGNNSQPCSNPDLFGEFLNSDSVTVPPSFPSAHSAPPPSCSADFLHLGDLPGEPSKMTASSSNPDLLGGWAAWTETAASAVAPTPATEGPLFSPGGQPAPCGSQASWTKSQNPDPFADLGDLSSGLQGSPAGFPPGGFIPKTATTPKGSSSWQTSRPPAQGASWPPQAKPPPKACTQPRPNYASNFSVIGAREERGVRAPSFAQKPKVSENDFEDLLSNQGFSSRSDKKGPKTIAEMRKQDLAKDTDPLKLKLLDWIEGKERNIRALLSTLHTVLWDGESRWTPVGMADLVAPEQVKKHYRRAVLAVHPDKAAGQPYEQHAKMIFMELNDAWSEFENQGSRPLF
MARK1, sequence (Q9P0L2 whole entry): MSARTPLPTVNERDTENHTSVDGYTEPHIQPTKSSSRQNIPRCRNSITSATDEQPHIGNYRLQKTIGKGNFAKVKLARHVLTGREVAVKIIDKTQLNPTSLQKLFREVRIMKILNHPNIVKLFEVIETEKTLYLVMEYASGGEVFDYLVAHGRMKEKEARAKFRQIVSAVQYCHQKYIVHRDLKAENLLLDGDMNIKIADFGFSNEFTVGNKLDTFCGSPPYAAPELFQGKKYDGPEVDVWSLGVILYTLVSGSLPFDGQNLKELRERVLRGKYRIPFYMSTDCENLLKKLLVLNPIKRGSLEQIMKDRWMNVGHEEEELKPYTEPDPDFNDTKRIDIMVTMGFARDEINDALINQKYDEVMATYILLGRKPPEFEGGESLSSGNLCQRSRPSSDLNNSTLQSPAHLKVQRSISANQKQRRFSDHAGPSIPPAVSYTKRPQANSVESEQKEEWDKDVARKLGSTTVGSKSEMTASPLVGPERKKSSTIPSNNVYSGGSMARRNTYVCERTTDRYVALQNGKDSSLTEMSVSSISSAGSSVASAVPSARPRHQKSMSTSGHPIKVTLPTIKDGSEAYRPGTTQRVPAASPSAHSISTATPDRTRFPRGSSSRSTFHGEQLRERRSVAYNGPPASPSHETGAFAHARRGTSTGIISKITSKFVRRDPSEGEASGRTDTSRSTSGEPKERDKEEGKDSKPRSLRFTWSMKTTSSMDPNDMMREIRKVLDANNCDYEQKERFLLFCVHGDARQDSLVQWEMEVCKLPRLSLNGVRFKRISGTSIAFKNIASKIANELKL
T2 sequence (Q9NYL2 2-800): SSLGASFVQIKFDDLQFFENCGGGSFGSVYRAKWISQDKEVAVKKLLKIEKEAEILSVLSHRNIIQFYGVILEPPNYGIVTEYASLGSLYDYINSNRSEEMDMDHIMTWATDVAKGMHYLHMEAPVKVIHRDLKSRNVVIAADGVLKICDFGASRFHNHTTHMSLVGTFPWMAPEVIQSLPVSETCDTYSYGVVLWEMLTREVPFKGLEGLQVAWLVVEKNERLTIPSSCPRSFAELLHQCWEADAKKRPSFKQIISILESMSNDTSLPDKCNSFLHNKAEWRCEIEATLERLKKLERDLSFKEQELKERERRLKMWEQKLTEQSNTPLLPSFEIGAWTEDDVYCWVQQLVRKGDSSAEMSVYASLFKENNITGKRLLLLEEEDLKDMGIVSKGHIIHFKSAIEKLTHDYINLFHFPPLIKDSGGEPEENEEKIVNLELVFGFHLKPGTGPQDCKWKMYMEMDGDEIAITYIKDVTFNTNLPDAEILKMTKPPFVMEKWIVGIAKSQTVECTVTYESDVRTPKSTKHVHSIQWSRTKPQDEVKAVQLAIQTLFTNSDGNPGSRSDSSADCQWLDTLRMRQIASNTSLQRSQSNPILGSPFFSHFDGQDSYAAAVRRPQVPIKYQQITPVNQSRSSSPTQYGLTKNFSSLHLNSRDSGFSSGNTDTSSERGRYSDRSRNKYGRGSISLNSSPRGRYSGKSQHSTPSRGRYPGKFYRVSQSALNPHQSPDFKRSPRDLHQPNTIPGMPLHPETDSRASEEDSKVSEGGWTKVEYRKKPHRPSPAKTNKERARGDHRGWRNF
T4 sequence (P53779 whole entry): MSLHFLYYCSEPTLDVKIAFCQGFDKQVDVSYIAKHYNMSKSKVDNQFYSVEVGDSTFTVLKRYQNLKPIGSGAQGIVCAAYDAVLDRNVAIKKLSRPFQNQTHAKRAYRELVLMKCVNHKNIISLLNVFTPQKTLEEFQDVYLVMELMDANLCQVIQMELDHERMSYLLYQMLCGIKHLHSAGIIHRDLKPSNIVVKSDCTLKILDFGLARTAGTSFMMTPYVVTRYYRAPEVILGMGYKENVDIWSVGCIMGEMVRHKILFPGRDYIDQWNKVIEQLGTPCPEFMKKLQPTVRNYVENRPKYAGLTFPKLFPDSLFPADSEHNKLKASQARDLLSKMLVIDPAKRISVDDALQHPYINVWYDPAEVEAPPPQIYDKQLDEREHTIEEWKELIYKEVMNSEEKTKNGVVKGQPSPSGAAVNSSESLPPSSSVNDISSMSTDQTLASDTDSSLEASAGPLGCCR
T7 sequence (Q8WU08 whole entry): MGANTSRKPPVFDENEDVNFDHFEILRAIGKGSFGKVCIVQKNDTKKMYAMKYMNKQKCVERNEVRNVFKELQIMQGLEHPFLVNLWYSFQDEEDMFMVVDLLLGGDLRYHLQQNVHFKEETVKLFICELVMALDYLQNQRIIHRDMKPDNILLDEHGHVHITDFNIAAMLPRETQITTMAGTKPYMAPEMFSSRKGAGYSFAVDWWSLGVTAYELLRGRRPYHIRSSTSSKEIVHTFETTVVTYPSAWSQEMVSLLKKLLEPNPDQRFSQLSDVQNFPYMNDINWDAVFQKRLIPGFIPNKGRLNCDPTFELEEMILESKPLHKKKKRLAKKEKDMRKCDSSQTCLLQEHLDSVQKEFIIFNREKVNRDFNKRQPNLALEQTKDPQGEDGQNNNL
T3 sequence (P62344 whole entry): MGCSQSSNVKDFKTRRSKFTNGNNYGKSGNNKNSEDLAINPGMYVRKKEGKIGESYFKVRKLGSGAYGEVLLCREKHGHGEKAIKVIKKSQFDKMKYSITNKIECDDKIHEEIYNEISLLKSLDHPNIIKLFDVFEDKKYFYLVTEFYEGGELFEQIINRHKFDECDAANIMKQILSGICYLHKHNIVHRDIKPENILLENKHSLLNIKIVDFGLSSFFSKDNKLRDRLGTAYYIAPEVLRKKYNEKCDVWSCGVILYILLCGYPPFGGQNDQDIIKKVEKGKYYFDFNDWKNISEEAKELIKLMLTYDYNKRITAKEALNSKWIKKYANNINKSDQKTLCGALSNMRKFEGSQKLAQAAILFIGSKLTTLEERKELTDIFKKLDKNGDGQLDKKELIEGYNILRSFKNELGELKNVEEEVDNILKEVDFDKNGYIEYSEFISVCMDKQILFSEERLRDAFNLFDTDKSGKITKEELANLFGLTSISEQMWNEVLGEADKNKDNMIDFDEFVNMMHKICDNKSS
T6 sequence (Q9C098 whole entry): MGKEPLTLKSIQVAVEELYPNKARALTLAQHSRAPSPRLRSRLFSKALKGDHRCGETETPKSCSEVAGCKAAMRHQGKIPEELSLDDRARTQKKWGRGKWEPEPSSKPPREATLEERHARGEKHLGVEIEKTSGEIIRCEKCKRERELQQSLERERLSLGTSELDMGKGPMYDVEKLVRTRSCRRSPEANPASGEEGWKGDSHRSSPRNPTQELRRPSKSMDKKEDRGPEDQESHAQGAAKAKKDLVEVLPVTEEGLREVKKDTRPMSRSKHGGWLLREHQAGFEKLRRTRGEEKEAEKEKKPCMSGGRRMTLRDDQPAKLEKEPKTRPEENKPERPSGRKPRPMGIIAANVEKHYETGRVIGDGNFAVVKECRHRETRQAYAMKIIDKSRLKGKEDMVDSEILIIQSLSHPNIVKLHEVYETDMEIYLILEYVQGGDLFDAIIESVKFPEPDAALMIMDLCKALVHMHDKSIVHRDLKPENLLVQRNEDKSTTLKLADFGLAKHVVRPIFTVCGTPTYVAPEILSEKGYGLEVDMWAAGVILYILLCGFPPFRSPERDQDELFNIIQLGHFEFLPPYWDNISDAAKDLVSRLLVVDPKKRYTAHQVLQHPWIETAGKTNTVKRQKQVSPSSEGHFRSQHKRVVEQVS

For orientation: inhibition means the share of the control response that was lost under treatment. As for `CNS(=O)(=O)c1ccc(N(C)C)c(Nc2ncnc3cc(OC)c(OC)cc23)c1` [compound 7, 3-((6,7-dimethoxyquinazolin-4-yl)amino)-4-(dimethylamino)-N-methylbenzenesulfonamide], the inhibition at 1 µM against PDFRB worked out at 91%; against ZAK, 93%; against GAK, 92%; at MARK1, 7%; at LYN, 0%; at CSNK1A1 it was 0%. The inhibition at 1 µM at RIPK4 was found to be 0%; on PRKCD, 24%; on PRKCI, 5%; on CDK2, 0%; at HIPK1, 5%; on PFCDPK1(P.falciparum), 96.3%. For the same compound, the inhibition at 1 µM on JNK3 was determined as 0%; on EPHA3, 5%; at MST4, 21%; at DCAMKL3, 15%; on PDGFRA, 69%; on YANK1, 17%. Moreover, the inhibition at 1 µM on AMPK-alpha2 came to 12%.
